Experimental findings from PubChem BioAssay (NCI) are described below.

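These data come from cells grown in 96-well plates and exposed to compound for 48 hours at five concentrations. The concentration for full growth arrest is given as TGI.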 Where only a bound is given, the exact number is not on record here.

Among the test systems are 786-0 renal; A498 renal; A549 NSCLC; CAKI-1 renal; EKVX NSCLC; HT29 colon; KM12 colon; M14 melanoma; MDA-MB-231 breast; NCI-H522 lung; OVCAR-4 ovarian; OVCAR-5 ovarian; RXF 393 renal; SF-539 CNS; SK-MEL-28 melanoma; SR leukemia; TK-10 renal; UO-31 renal; HL-60(TB) leukemia.
Test in all cases: growth of human tumour cells (NCI), 48 h

As to `O=[N+]([O-])C(=C(N1CCCCC1)N1CCCCC1)/C(Cl)=C(\Cl)[N+](=O)[O-]`, the TGI was 10.2 µM in the test on 786-0 renal; 32.1 µM with A498 renal; 42.4 µM with A549 NSCLC; 2.83 µM in the test with CAKI-1 renal; 30 µM in the test on EKVX NSCLC; 12.5 µM with HT29 colon. Also, the TGI with KM12 colon came to 41.7 µM; in the test on M14 melanoma it was 21.7 µM; in the test with MDA-MB-231 breast, 14.8 µM; in the test with NCI-H522 lung, 3.37 µM; in the test on OVCAR-4 ovarian, 22.8 µM; in the test with OVCAR-5 ovarian it was 35.5 µM. The TGI in the test with RXF 393 renal was 2.94 µM; with SF-539 CNS, 25.8 µM; with SK-MEL-28 melanoma, 37.3 µM; in the test with SR leukemia, > 100 µM; in the test with TK-10 renal it was 10.1 µM; in the test on UO-31 renal it was 8.11 µM.

Regarding `CCC(CCN)(CCN)[N+](=O)[O-]`, the TGI in the test with 786-0 renal, with A549 NSCLC, in the test on CAKI-1 renal, with EKVX NSCLC, with HL-60(TB) leukemia and in the test with HT29 colon was > 100 µM throughout. In addition, the TGI in the test with KM12 colon, with M14 melanoma, with MDA-MB-231 breast, in the test on NCI-H522 lung, in the test with OVCAR-5 ovarian and in the test on RXF 393 renal was > 100 µM throughout. For the same molecule, the TGI with SF-539 CNS and in the test with SR leukemia was > 100 µM in each case.

In the case of `CNC(=O)C1CCCN1C(=O)C(Cc1cnc[nH]1)NC(=O)C1CCC(=O)N1` (stereo unspecified), the TGI in the test with 786-0 renal, in the test with A549 NSCLC, with CAKI-1 renal, in the test with EKVX NSCLC, in the test on HL-60(TB) leukemia and with HT29 colon was > 100 µM each time. The TGI in the test with KM12 colon, in the test on M14 melanoma, in the test with MDA-MB-231 breast, in the test on NCI-H522 lung, in the test on OVCAR-4 ovarian and in the test with OVCAR-5 ovarian was > 100 µM each time. The TGI in the test with RXF 393 renal, in the test on SK-MEL-28 melanoma, in the test on SR leukemia, in the test with TK-10 renal and in the test with UO-31 renal was > 100 µM in each case.

Take `Clc1ccc(C2=C(c3ccccc3)C(c3ccc(Cl)cc3)N3C(=N[C@H]4CCCC[C@@H]43)N2)cc1` (stereo partly specified): the TGI in the test with 786-0 renal came to 27.8 µM; in the test on A498 renal, 31.1 µM; in the test with A549 NSCLC it was 24.4 µM; with CAKI-1 renal it was 30.1 µM; in the test on EKVX NSCLC, 24.8 µM; with HL-60(TB) leukemia, 10.9 µM. Moreover, the TGI came to 11.7 µM in the test with HT29 colon; 23.5 µM in the test on KM12 colon; 24.8 µM in the test with M14 melanoma; 29.8 µM in the test with MDA-MB-231 breast; 21.4 µM in the test with OVCAR-4 ovarian; 29.8 µM with OVCAR-5 ovarian. The TGI amounted to 27.6 µM in the test on RXF 393 renal; 29.7 µM with SF-539 CNS; 26.5 µM in the test on SK-MEL-28 melanoma; 5.56 µM with SR leukemia; 22.3 µM in the test with TK-10 renal; 26.4 µM with UO-31 renal.

Consider `CN(C)CCNC1=CC(=O)c2nc3ccccc3c3ccnc1c23`, for which the TGI in the test on 786-0 renal was determined as 15.6 µM; in the test with A549 NSCLC, 26.3 µM; in the test on CAKI-1 renal it was 18.9 µM; in the test on EKVX NSCLC, 14.3 µM; with HL-60(TB) leukemia, 16.8 µM; in the test on HT29 colon, 14.2 µM. Moreover, the TGI in the test with KM12 colon worked out at 17.4 µM; in the test with M14 melanoma it was 21.6 µM; with MDA-MB-231 breast it was 16 µM; in the test with NCI-H522 lung, 16.2 µM; in the test on OVCAR-4 ovarian, 16.6 µM; with OVCAR-5 ovarian, 34.1 µM. Moreover, the TGI is 15.5 µM with SF-539 CNS; 23.5 µM in the test with SK-MEL-28 melanoma; 9.05 µM in the test with SR leukemia; 97.5 µM in the test on TK-10 renal; 23.8 µM in the test on UO-31 renal.

`Cc1sc(Nc2ccccc2[N+](=O)[O-])c(C#N)c1C`: the TGI in the test with 786-0 renal is 61.7 µM; in the test on A498 renal it was > 100 µM; with A549 NSCLC it was > 100 µM; in the test on CAKI-1 renal it was > 100 µM; in the test on EKVX NSCLC, > 100 µM; with KM12 colon, > 100 µM. Also, the TGI in the test with M14 melanoma is > 100 µM; with MDA-MB-231 breast, 65.8 µM; in the test on NCI-H522 lung, 20.9 µM; in the test with OVCAR-4 ovarian, > 100 µM; in the test on OVCAR-5 ovarian, > 100 µM; with RXF 393 renal, 57.1 µM. Moreover, the TGI with SF-539 CNS was 68.3 µM; with SK-MEL-28 melanoma, > 100 µM; in the test on SR leukemia, > 100 µM; with UO-31 renal it was > 100 µM.

For `COCCN(CCOC)C(=O)COc1c2cc(C(C)(C)C)cc1Cc1cc(C(C)(C)C)cc(c1OCC(=O)N(CCOC)CCOC)Cc1cc(C(C)(C)C)cc(c1OCC(=O)N(CCOC)CCOC)Cc1cc(C(C)(C)C)cc(c1OCC(=O)N(CCOC)CCOC)Cc1cc(C(C)(C)C)cc(c1OCC(=O)N(CCOC)CCOC)C2`, the TGI came out at 12.2 µM in the test with 786-0 renal; 9.53 µM in the test with A498 renal; 11.3 µM in the test on A549 NSCLC; 2.8 µM in the test on EKVX NSCLC; 8.13 µM in the test with HT29 colon; 11.1 µM in the test with KM12 colon. Besides, the TGI in the test with M14 melanoma came to 13 µM; with MDA-MB-231 breast, 5.06 µM; in the test with NCI-H522 lung, 6.9 µM; with OVCAR-4 ovarian, 17.5 µM; in the test on OVCAR-5 ovarian, 18.2 µM; in the test on RXF 393 renal it was 4.03 µM. Further, the TGI with SF-539 CNS is 5.9 µM; in the test on SK-MEL-28 melanoma it was 18.6 µM; in the test with SR leukemia it was 3.63 µM; in the test with TK-10 renal it was 15 µM.

`CC1OC(OC2C(CO)OC(O[C@H]3CC[C@@]4(C)C(=CC[C@H]5[C@@H]6C[C@@H]7O[C@](O)(CC[C@H](CO)COC8OC(CO)C(O)C(O)C8O)[C@@H](C)[C@@H]7[C@@]6(C)CC[C@@H]54)C3)C(OC3OC(C)C(O)C(O)C3O)C2O)C(O)C(O)C1O` (stereo partly specified): the TGI with 786-0 renal, with A498 renal, in the test with A549 NSCLC, in the test with CAKI-1 renal, with EKVX NSCLC and in the test with HT29 colon was > 100 µM in each case. Further, the TGI with KM12 colon, in the test with M14 melanoma, in the test with MDA-MB-231 breast, with NCI-H522 lung, in the test with OVCAR-4 ovarian and with OVCAR-5 ovarian was > 100 µM throughout. The TGI in the test on RXF 393 renal, with SF-539 CNS, in the test on SK-MEL-28 melanoma, in the test on SR leukemia, in the test on TK-10 renal and with UO-31 renal was > 100 µM in each case.

For `CC1=CC(=O)[C@@H](O)[C@]2(C)[C@H]3[C@@]4(O)OC[C@@]35[C@@H](C[C@@H]12)OC(=O)C(OC(=O)CC1=CCCC1)[C@H]5[C@@H](C)[C@H]4O` (stereo partly specified), the TGI amounted to 0.311 µM in the test with 786-0 renal; 8.99 µM in the test on A549 NSCLC; 1.63 µM in the test on CAKI-1 renal; 1.45 µM in the test on EKVX NSCLC; 0.237 µM with HL-60(TB) leukemia; 0.203 µM in the test with HT29 colon. For the same molecule, the TGI in the test with KM12 colon came to 0.166 µM; with M14 melanoma, 0.103 µM; in the test with MDA-MB-231 breast it was 0.372 µM; with NCI-H522 lung it was 0.0733 µM; in the test on OVCAR-4 ovarian, 0.284 µM; in the test on OVCAR-5 ovarian it was 0.687 µM. The TGI in the test with RXF 393 renal was 0.234 µM; with SF-539 CNS, 0.0676 µM; in the test on SK-MEL-28 melanoma, 1.25 µM; with SR leukemia, > 100 µM; in the test with TK-10 renal, 0.948 µM; in the test with UO-31 renal, 0.449 µM.

Regarding `O=P(c1ccccc1)(c1ccccc1)c1ccc2c(c1)OCCOCCOCCOCCO2`, the TGI in the test on 786-0 renal, in the test on A498 renal, with A549 NSCLC, in the test with CAKI-1 renal, in the test with EKVX NSCLC and in the test with HL-60(TB) leukemia was > 100 µM throughout. Besides, the TGI in the test on KM12 colon, in the test on M14 melanoma, with MDA-MB-231 breast, with NCI-H522 lung, in the test with SF-539 CNS and in the test on SK-MEL-28 melanoma was > 100 µM throughout. The TGI in the test with SR leukemia, with TK-10 renal and with UO-31 renal was > 100 µM throughout.

Regarding `CCOC(=O)c1c(-c2ccccc2)nc2c(OC)nccn12`, the TGI with 786-0 renal, in the test on A549 NSCLC, with CAKI-1 renal, with EKVX NSCLC, in the test with HL-60(TB) leukemia and in the test with HT29 colon was > 100 µM in each case. The TGI is > 100 µM in the test with KM12 colon; > 100 µM with M14 melanoma; > 100 µM in the test with MDA-MB-231 breast; > 100 µM in the test with NCI-H522 lung; > 100 µM in the test on OVCAR-4 ovarian; 80.9 µM in the test on RXF 393 renal. In addition, the TGI in the test on SF-539 CNS, with SK-MEL-28 melanoma, in the test with SR leukemia, with TK-10 renal and in the test on UO-31 renal was > 100 µM in each case.

Consider `CC(CO)(CBr)COC(=O)c1cc(Br)c(N)c(Br)c1` (stereo unspecified), for which the TGI in the test with 786-0 renal, with A498 renal, in the test with A549 NSCLC, with CAKI-1 renal, in the test with EKVX NSCLC and in the test with HL-60(TB) leukemia was > 100 µM each time. For the same molecule, the TGI with HT29 colon, in the test with KM12 colon, in the test with M14 melanoma, in the test on MDA-MB-231 breast, with OVCAR-4 ovarian and in the test with OVCAR-5 ovarian was > 100 µM each time. The TGI with SF-539 CNS was > 100 µM; with SK-MEL-28 melanoma it was > 100 µM; with SR leukemia, > 100 µM; with TK-10 renal, > 100 µM; in the test with UO-31 renal, 11.3 µM.
